Measurements reported in patent US20250129123A1, “BIOMIMETIC PEPTIDES AND THEIR USE IN BONE REGENERATION” (SILK BIOMATERIALS S.R.L., priority 2021, published 2025).
Ends that are not written are not given here.

Columns and labels:
[1] = test system: human mesenchymal stem cells (MSCs); assay: Mineralization test (von Kossa staining) of fibroin foams incubated with human mesenchymal stem cells; format: cell-based; settings: presence of MSC (+MSC), complete medium, 7 days, decellularized foams
Protocol: (§1) Human mesenchymal stem cells (MSCs) were purchased from Lonza and cultured in Dulbecco's Modified Eagle's Medium (DMEM), supplemented with 10% MSC Stimulatory Supplement, 100 U/mL penicillin-streptomycin and non-essential amino acids at 37° C. in a fully humidified atmosphere at 5% CO2. The fibroin foams were placed in a 96-well plate, immersed in 70% ethanol for 30 minutes, washed in phosphate buffered saline (PBS) three times, immersed in 100 U/mL penicillin-streptomycin overnight and washed three times in PBS. MSC (10^4/50 μL) were seeded by pipetting onto different points of the foam to improve the distribution of the cells within the foam and allowed to adhere for 30 minutes. Subsequently, 150 μL of complete medium were added to each well. As a negative control, the fibroin foams were kept in the complete cell-free medium. The medium was changed every two days.
(§2) The foams were washed twice with PBS (not containing magnesium/calcium ions) before cell lysis and protein extraction. Cell lysis was performed using the HEPES buffer (50 mM HEPES, pH 7.4, 150 mM NaCl, 10% (v/v) glycerol, 1% (v/v) Triton X-100, 1.5 mM MgCl2, 1 mM EGTA) containing 100 mM NaF, 1 mM NaVO4, 1 μg/mL leupeptin, and 1 μg/mL aprotinin. After 30 minutes on ice, the extracts were centrifuged for 10 minutes at 13,000 g as cell lysate and stored at −20° C. The remaining deposited matrix was washed twice with PBS (not containing magnesium/calcium ions). To fix the matrix on the fibroin foams […] was added in ultrapure water at room temperature for 10 minutes and then two washes with ultrapure water were performed. […]
(§3) The human mesenchymal stem cells (MSCs) were cultured for 7 days in the fibroin foams functionalized with the biomimetic peptides, using a non-functionalized fibroin foam as a reference. […] The extent of calcium deposit was studied by means of von Kossa staining and quantified by image analysis with ImageJ software. […] The threshold was adjusted manually, and the percentage area covered by the signal above the threshold was measured.

[2] = Mineralization test (von Kossa staining) of fibroin foams in complete medium in the absence of cells; settings: absence of MSC (NO MSC), 7 days
Protocol: as §1, §2, §3

[3] = SEM/EDX chemical characterization of fibroin foams incubated in SBF; settings: fibroin foam functionalized with peptide, 14 days, aggregates "Object 10437"
Protocol: […]
The fibroin foam samples were analysed in SEM/EDX in order to morphologically and compositionally identify the mineral formations constituted by calcium and phosphate salts.

Sequence	amount of deposited calcium (percentage area covered by von Kossa staining) versus non-functionalized foam [1]	amount of deposited calcium (percentage area covered by von Kossa staining) versus non-functionalized foam [2]	chemical composition of the crystalline aggregates (SEM/EDX) [3]
GPYVAHGGYSGYEY	always higher	always higher	–
SGYEYAWSSESDF	always higher	always higher	–
VNGGYSGYEYAW	always higher	always higher	intense signals of calcium (Ca) and phosphorus (P)
